Three compounds from US7777073B2, “Topical delivery system for antiaging and skin whitening agents” (Bioderm Research, priority 2004, dated 2010) can be followed below.

One experiment addresses T1, MMP-2 (Homo sapiens, UniProt P08253).
T1 construct: purchased Biomol Corporation
Briefly: In vitro inhibition of MMP-2 (Biomol assay kit). In kind it is biochemical. To be noted: read-out: 50% Inhibition Concentration MMP-2 (converted). An excerpt:
(§1) In vitro specific inhibition of MMP-2 and MMP-9 activity by [R]-(N-[(2,4-dihydroxyphenyl)ethyl]glycine and [S]-N-[(2,4-dihydroxyphenyl)ethyl]glycine was estimated with assay kits from Biomol Corporation. Recombinant human MMP-1 enzyme was obtained from R&D Systems. The enzyme was first activated with APMA according to the protocol provided by R&D Systems. The experimental conditions for the screening of MMP-1 inhibitors were similar to the settings used for MMP-2 and MMP-9 testing.
(§2) In vitro inhibition of MMP1, 2 and 9 for several samples (mcg=micro-grams).

Another experiment relates to mushroom tyrosinase. Briefly: Inhibition of tyrosinase, kinetic analysis. Type of experiment: biochemical. The settings on record: for IC50: 20 C, phosphate buffer 100 mM, pH 6.8, read-out: Tyrosinase Inhibitory Concentration. The procedure:
Method. Kinetic analysis of 2,4 DHA inhibition.
All reactions were performed at 20 C, in phosphate buffer 100 mM, pH 6.8, mushroom tyrosinase.

Another experiment has as its system Matrix metalloproteases. The experiment is described as follows: In vitro inhibition of Matrix metalloproteases, overall assessment. In kind it is biochemical.
Text: as §1

For the next experiment, the system named is skin. Briefly: Differences in antiaging and skin whitening affect of [S] and [R] isomers.
Another experiment addresses T2, MMP-9 (Homo sapiens, UniProt P14780).
T2 construct: purchased Biomol Corporation
The experiment is described as follows: In vitro inhibition of MMP-9 (Biomol assay kit). To be noted: read-out: 50% Inhibition Concentration MMP-9 (converted). Type of experiment: biochemical.
Text: as §1, §2

For experiment [1], the target named is T3, Recombinant human MMP-1 enzyme (Homo sapiens, UniProt P03956).
T3 construct: purchased R&D Systems
T3 sequence (P03956 100-469): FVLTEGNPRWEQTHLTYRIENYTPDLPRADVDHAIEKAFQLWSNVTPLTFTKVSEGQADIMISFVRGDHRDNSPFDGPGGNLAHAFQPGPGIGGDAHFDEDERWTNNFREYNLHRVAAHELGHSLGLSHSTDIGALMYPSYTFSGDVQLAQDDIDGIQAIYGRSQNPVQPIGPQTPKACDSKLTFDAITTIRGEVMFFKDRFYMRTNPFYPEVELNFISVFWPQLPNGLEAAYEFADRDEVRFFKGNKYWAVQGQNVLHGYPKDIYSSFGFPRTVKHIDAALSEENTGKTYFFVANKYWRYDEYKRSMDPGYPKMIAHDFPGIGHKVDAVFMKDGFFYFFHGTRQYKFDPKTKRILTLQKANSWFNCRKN
The experiment is described as follows: In vitro inhibition of MMP-1. The settings on record: enzyme activated with APMA, read-out: 50% Inhibition Concentration MMP-1 (converted). In kind it is biochemical.
Text: as §1, §2

“Also recorded” adds a separate entry of the source. Read-outs that look alike come from different tables or passages of the source.

T1 sequence (P08253 110-452 limits assumed, species assumed): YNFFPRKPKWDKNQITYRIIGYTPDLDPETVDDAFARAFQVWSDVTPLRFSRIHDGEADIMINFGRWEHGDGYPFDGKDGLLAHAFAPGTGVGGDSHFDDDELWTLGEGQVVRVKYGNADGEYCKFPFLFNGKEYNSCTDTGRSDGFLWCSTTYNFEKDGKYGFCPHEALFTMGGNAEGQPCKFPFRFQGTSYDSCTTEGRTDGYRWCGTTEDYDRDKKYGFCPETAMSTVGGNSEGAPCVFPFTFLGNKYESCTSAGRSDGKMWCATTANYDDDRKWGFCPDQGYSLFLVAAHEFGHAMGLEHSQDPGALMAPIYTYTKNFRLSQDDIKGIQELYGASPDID
T2 sequence (P14780 107-444 limits assumed, species assumed): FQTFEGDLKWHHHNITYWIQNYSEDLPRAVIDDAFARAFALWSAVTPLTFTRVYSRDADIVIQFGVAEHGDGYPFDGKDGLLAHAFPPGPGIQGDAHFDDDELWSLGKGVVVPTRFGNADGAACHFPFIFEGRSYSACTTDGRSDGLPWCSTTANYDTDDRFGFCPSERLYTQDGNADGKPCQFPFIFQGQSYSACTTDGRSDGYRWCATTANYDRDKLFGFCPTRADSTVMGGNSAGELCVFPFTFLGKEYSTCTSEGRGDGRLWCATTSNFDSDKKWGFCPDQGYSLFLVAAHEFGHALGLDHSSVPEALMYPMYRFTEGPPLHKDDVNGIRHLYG

`C[C@@H](NCC(=O)O)c1ccc(O)cc1O`: the IC50 at MMP-2 is 71 µM; on mushroom tyrosinase, 5000 µM; on MMP-9, 94.7 µM; in experiment [1], 94.7 µM. Moreover, the entries for the “Tyrosinase inhibition (in words)” value with mushroom tyrosinase and in the experiment with mushroom tyrosinase (listed as [R]-(N-[(2,4-dihydroxyphenyl)ethyl]glycine)) were “excellent inhibitor” and “anti-tyrosinase activity”, respectively. Moreover, the “MMP inhibition (in words)” value in the experiment on Matrix metalloproteases (MMP1, 2 and 9) was “very good and general inhibition”; in the experiment on Matrix metalloproteases (MMP1, 2 and 9, listed as [R]-(N-[(2,4-dihydroxyphenyl)ethyl]glycine)), “MMP inhibition”. In the experiment with skin, the “Skin whitening benefits, [R] versus [S] isomer” value was “better skin whitening benefits”.
On to `OC[C@H]1O[C@@H](Oc2ccc(O)cc2)[C@H](O)[C@@H](O)[C@@H]1O` [Arbutin, reference compound], for which the IC50 at mushroom tyrosinase was 25000 µM.
Consider `C[C@H](NCC(=O)O)c1ccc(O)cc1O` [[S]-N-[(2,4-dihydroxyphenyl)ethyl]glycine], for which the IC50 was 189 µM at MMP-2, 10000 µM on mushroom tyrosinase, 284 µM on MMP-9 and 166 µM in experiment [1]. The “Tyrosinase inhibition (in words)” value in the experiment with mushroom tyrosinase was “anti-tyrosinase activity; also recorded: excellent inhibitor”. Moreover, the “MMP inhibition (in words)” value with Matrix metalloproteases (MMP1, 2 and 9) is recorded as “MMP inhibition; also recorded: just a bit weaker, but still quite acceptable”. In the experiment on skin, the “Antiwrinkle properties, [S] versus [R] isomer” value is reported as “better antiwrinkle properties”.
